Laboratory results as given in patent EP4722212A1, “NOVEL COMPOUND FOR INHIBITING PROTEIN KINASES AND PHARMACEUTICAL COMPOSITION COMPRISING SAME” (Magicbullettherapeutics Co., Ltd., priority 2023, dated 2024).
Like-named read-outs stand apart in the source and are kept apart here.

How the values were obtained:
Assay in all cases: Kinase panel
Type in all cases: biochemical
MAK = MAK (Homo sapiens, UniProt P20794); settings: read-out: residual enzyme activity
How it was run: (§1)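 Residual enzyme activity is given for kinases screened biochemically with compound at a fixed 1 µM. Kinases showing ≤40% residual activity (≥60% inhibition) were identified as inhibited.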

ERK2/MAPK1 = ERK2/MAPK1 (Homo sapiens, UniProt P28482); settings: ERK2/MAPK1, 1 µM; read-out: residual enzyme activity
How it was run: as §1

TYK2 = TYK2 (Homo sapiens, UniProt P29597); settings: TYK2, 1 µM; read-out: residual enzyme activity
How it was run: as §1

NEK5 = NEK5 (Homo sapiens, UniProt Q6P3R8); settings: NEK5, 1 µM; read-out: residual enzyme activity
How it was run: as §1

LATS1 = LATS1 (Homo sapiens, UniProt O95835); settings: LATS1, 1 µM; read-out: residual enzyme activity
How it was run: as §1

MLCK/MYLK = MLCK/MYLK (Homo sapiens, UniProt Q15746); settings: read-out: residual enzyme activity
How it was run: as §1

ROS/ROS1 = ROS/ROS1 (Homo sapiens, UniProt P08922); settings: ROS/ROS1, 1 µM; read-out: residual enzyme activity
Sequence of ROS/ROS1 (P08922 28-2347): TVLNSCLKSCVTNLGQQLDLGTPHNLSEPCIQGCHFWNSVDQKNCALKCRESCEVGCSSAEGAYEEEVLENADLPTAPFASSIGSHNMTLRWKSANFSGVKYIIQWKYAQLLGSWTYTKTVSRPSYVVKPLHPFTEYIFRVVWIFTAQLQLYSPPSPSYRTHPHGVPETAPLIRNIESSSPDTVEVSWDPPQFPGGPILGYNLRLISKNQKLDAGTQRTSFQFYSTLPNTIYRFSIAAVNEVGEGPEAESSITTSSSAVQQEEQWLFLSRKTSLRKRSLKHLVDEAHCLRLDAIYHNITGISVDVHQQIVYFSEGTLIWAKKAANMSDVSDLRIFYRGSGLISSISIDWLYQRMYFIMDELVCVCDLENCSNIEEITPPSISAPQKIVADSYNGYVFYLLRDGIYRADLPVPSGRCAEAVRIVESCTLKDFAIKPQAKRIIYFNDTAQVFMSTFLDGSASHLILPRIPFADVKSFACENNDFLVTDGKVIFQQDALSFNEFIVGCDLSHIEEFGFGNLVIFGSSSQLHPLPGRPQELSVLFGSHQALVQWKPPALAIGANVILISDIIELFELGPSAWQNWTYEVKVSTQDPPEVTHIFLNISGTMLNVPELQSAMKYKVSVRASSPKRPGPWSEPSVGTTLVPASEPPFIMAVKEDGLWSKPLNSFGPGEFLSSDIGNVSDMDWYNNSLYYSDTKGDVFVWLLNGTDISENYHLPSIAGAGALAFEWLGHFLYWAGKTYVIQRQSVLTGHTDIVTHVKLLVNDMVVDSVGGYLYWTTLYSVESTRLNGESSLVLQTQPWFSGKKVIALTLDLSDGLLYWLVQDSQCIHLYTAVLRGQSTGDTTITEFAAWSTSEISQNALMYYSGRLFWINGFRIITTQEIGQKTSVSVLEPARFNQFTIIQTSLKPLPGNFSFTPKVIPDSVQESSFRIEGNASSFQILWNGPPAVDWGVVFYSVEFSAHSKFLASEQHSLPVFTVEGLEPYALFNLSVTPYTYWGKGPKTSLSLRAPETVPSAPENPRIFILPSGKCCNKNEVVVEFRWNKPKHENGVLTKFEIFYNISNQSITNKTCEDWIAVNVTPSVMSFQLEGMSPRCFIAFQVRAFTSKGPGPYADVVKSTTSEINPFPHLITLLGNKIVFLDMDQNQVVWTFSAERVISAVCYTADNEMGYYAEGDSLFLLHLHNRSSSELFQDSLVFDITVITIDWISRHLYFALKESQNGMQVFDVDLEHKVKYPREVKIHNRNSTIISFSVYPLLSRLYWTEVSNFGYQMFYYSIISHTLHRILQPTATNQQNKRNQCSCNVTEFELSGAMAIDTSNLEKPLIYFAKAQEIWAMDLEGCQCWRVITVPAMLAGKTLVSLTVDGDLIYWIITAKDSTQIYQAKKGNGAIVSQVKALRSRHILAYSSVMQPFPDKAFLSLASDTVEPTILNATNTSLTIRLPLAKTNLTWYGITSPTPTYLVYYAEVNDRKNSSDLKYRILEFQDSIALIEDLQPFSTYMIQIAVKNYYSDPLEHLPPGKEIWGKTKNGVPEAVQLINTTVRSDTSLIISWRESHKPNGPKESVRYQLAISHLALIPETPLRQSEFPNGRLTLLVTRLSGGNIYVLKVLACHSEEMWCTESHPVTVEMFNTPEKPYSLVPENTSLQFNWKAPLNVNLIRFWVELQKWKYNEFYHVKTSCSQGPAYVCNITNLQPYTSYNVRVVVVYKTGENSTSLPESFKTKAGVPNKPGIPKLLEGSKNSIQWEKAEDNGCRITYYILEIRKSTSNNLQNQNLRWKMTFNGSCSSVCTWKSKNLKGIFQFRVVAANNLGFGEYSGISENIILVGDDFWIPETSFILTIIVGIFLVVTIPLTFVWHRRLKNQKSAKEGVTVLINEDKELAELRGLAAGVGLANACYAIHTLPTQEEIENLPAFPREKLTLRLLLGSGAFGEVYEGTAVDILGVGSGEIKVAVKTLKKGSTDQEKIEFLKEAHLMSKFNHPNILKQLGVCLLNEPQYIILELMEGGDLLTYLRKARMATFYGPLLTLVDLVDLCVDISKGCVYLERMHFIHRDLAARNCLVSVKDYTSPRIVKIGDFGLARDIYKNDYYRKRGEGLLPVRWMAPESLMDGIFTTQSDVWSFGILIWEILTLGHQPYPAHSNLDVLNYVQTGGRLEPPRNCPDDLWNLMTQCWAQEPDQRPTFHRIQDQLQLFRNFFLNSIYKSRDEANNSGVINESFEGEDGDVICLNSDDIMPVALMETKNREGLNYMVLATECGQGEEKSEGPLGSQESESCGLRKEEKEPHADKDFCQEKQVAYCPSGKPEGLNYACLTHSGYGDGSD
How it was run: as §1

CAMK1D = CAMK1D (Homo sapiens, UniProt Q8IU85); settings: read-out: residual enzyme activity
How it was run: as §1

CSK = CSK (Homo sapiens, UniProt P41240); settings: read-out: residual enzyme activity
How it was run: as §1

NLK = NLK (Homo sapiens, UniProt Q9UBE8); settings: read-out: residual enzyme activity
How it was run: as §1

EPHB4 = EPHB4 (Homo sapiens, UniProt P54760); settings: EPHB4, 1 µM; read-out: residual enzyme activity
Sequence of EPHB4 (P54760 16-987, species assumed): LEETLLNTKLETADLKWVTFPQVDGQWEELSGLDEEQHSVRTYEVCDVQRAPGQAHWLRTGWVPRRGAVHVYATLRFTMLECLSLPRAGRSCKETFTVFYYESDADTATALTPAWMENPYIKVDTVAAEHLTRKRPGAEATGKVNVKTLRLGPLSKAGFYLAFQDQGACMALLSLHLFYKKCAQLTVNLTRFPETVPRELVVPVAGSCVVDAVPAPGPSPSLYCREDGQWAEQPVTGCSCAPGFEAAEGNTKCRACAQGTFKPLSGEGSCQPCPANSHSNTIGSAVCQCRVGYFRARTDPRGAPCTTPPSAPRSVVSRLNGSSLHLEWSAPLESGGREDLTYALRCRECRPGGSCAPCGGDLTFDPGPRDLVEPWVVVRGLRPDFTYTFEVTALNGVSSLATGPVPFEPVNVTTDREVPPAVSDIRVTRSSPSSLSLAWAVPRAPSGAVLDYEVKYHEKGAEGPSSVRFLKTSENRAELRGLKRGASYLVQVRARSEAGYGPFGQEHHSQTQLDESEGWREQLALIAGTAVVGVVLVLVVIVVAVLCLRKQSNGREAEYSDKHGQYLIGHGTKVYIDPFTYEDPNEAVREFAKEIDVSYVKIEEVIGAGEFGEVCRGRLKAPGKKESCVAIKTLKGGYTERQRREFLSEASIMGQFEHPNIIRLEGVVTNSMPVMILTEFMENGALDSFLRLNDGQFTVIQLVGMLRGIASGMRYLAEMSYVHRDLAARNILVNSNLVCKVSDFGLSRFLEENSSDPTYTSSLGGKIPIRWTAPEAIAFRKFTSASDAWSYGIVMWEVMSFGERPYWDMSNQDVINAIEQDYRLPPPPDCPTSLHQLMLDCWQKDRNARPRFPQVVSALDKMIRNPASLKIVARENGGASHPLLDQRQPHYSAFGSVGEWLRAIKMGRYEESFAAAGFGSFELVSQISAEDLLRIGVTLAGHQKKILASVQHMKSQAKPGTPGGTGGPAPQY
How it was run: as §1

ABL2/ARG = ABL2/ARG (Homo sapiens, UniProt P42684); settings: read-out: residual enzyme activity
How it was run: as §1

MEKK3 = MEKK3 (Homo sapiens, UniProt Q99759); settings: MEKK3, 1 µM; read-out: residual enzyme activity
How it was run: as §1

PBK/TOPK = PBK/TOPK (Homo sapiens, UniProt Q96KB5); settings: read-out: residual enzyme activity
How it was run: as §1

CK2A = CK2A (Homo sapiens, UniProt P68400); settings: read-out: residual enzyme activity
How it was run: as §1

NEK6 = NEK6 (Homo sapiens, UniProt Q9HC98); settings: NEK6, 1 µM; read-out: residual enzyme activity
How it was run: as §1

IRR/INSRR = IRR/INSRR (Homo sapiens, UniProt P14616); settings: read-out: residual enzyme activity
How it was run: as §1

TLK1 = TLK1 (Homo sapiens, UniProt Q9UKI8); settings: TLK1, 1 µM; read-out: residual enzyme activity
How it was run: as §1

PKG1B = PKG1B (Homo sapiens, UniProt Q13976); settings: read-out: residual enzyme activity
How it was run: as §1

MYLK4 = MYLK4 (Homo sapiens, UniProt Q86YV6); settings: MYLK4, 1 µM; read-out: residual enzyme activity
Sequence of MYLK4 (Q86YV6 whole entry, species assumed): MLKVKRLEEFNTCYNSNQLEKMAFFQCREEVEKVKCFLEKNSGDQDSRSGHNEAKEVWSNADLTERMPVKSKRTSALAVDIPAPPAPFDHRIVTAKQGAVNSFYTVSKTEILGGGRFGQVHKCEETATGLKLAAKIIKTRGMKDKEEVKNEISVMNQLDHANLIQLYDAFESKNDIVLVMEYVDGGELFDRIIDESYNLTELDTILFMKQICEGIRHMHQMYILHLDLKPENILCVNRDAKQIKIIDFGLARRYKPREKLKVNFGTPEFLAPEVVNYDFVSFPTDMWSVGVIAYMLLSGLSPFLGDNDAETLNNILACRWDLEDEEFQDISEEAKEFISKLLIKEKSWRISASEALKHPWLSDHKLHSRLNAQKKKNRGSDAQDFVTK
How it was run: as §1

P38A/MAPK14 = P38A/MAPK14 (Homo sapiens, UniProt Q16539); settings: read-out: residual enzyme activity
Sequence of P38A/MAPK14 (Q16539 2-360 limits assumed): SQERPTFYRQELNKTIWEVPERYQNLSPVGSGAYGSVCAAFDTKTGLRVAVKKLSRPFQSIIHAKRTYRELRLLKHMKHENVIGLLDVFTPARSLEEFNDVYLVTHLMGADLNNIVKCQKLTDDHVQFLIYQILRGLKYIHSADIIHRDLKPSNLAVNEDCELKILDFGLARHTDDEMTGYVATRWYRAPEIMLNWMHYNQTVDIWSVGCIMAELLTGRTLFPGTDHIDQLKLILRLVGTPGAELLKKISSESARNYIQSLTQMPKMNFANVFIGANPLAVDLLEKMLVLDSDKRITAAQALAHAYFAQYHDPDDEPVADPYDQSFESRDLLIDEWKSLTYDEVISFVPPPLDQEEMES
How it was run: as §1

SLK/STK2 = SLK/STK2 (Homo sapiens, UniProt Q9H2G2); settings: SLK/STK2, 1 µM; read-out: residual enzyme activity
How it was run: as §1

GRK7 = GRK7 (Homo sapiens, UniProt Q8WTQ7); settings: GRK7, 1 µM; read-out: residual enzyme activity
How it was run: as §1

EPHA4 = EPHA4 (Homo sapiens, UniProt P54764); settings: EPHA4, 1 µM; read-out: residual enzyme activity
How it was run: as §1

CDK5/P25 = CDK5/P25 (Homo sapiens, UniProt Q00535); settings: CDK5/P25, 1 µM; read-out: residual enzyme activity
How it was run: as §1

AXL = AXL (Homo sapiens, UniProt P30530); settings: read-out: residual enzyme activity
Sequence of AXL (P30530 26-894): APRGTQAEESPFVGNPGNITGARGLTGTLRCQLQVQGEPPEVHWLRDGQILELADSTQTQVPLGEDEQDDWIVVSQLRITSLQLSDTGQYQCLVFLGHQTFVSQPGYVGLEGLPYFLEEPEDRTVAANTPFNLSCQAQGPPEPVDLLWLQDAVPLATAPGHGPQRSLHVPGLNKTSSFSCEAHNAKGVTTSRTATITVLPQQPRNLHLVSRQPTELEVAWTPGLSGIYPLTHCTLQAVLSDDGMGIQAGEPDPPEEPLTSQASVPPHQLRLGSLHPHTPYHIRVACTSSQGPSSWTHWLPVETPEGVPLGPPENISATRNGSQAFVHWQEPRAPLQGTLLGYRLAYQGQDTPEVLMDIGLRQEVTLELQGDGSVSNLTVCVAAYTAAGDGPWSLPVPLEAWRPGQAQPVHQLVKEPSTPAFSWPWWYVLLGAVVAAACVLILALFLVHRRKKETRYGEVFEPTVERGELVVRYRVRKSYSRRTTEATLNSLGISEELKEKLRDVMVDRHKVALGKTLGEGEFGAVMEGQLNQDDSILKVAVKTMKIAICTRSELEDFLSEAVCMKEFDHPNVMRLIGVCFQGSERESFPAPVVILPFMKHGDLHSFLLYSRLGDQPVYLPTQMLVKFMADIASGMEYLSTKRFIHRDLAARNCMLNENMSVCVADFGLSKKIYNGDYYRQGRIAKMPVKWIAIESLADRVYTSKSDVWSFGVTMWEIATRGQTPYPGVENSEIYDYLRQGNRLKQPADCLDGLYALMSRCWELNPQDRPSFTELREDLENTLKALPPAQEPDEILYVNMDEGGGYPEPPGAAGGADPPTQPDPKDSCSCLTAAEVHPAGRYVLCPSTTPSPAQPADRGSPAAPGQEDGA
How it was run: as §1

NEK9 = NEK9 (Homo sapiens, UniProt Q8TD19); settings: NEK9, 1 µM; read-out: residual enzyme activity
How it was run: as §1

MEK1 = MEK1 (Homo sapiens, UniProt Q02750); settings: MEK1, 1 µM; read-out: residual enzyme activity
How it was run: as §1

MAPKAPK2 = MAPKAPK2 (Homo sapiens, UniProt P49137); settings: MAPKAPK2, 1 µM; read-out: residual enzyme activity
How it was run: as §1

EPHA3 = EPHA3 (Homo sapiens, UniProt P29320); settings: EPHA3, 1 µM; read-out: residual enzyme activity
How it was run: as §1

KDR/VEGFR2 = KDR/VEGFR2 (Homo sapiens, UniProt P35968); settings: KDR/VEGFR2, 1 µM; read-out: residual enzyme activity
How it was run: as §1

MARK1 = MARK1 (Homo sapiens, UniProt Q9P0L2); settings: MARK1, 1 µM; read-out: residual enzyme activity
How it was run: as §1

VRK1 = VRK1 (Homo sapiens, UniProt Q99986); settings: VRK1, 1 µM; read-out: residual enzyme activity
How it was run: as §1

BRK = BRK (Homo sapiens, UniProt Q13882); settings: read-out: residual enzyme activity
How it was run: as §1

| SMILES | remaining activity at 1 µM (MAK) [%] | remaining activity at 1 µM (ERK2/MAPK1) [%] | remaining activity at 1 µM (TYK2) [%] | remaining activity at 1 µM (NEK5) [%] | remaining activity at 1 µM (LATS1) [%] | remaining activity at 1 µM (MLCK/MYLK) [%] | remaining activity at 1 µM (ROS/ROS1) [%] | remaining activity at 1 µM (CSK) [%] | remaining activity at 1 µM (NLK) [%] | remaining activity at 1 µM (EPHB4) [%] | remaining activity at 1 µM (ABL2/ARG) [%] | remaining activity at 1 µM (MEKK3) [%] | remaining activity at 1 µM (PBK/TOPK) [%] | remaining activity at 1 µM (NEK6) [%] | remaining activity at 1 µM (IRR/INSRR) [%] | remaining activity at 1 µM (TLK1) [%] | remaining activity at 1 µM (MYLK4) [%] | remaining activity at 1 µM (SLK/STK2) [%] | remaining activity at 1 µM (GRK7) [%] | remaining activity at 1 µM (EPHA4) [%] | other results |
| --- | --- | --- | --- | --- | --- | --- | --- | --- | --- | --- | --- | --- | --- | --- | --- | --- | --- | --- | --- | --- | --- |
| Cc1ccc(Nc2ncc3c(n2)C2(CC2)C(=O)N(c2cc(NC(=O)c4cccc(C(F)(F)F)c4)ccc2C)C3)cn1 [Compound 51, N-(4-methyl-3-(2'-((6-methylpyridin-3-yl)amino)-7'-oxo-5'H-spiro[cyclopropane-1,8'-pyrido[4,3-d]pyrimidine]-6'(7'H)-yl)phenyl)-3-(trifluoromethyl)benzamide] | > 40 | > 40 | ≤ 40 | > 40 | > 40 | > 40 | ≤ 40 | ≤ 40 | > 40 | ≤ 40 | ≤ 40 | ≤ 40 | > 40 | > 40 | > 40 | > 40 | > 40 | ≤ 40 | > 40 | ≤ 40 | remaining activity at 1 µM (CAMK1D; CAMK1d): > 40%; remaining activity at 1 µM (CK2A; CK2a): > 40%; remaining activity at 1 µM (PKG1B; PKG1b): > 40%; remaining activity at 1 µM (P38A/MAPK14; P38a/MAPK14, 1 µM): ≤ 40%; remaining activity at 1 µM (CDK5/P25): > 40%; remaining activity at 1 µM (AXL): > 40%; remaining activity at 1 µM (NEK9): > 40%; remaining activity at 1 µM (MEK1): > 40%; remaining activity at 1 µM (MAPKAPK2): > 40%; remaining activity at 1 µM (EPHA3): ≤ 40%; remaining activity at 1 µM (KDR/VEGFR2): ≤ 40%; remaining activity at 1 µM (MARK1): > 40%; remaining activity at 1 µM (VRK1): > 40%; remaining activity at 1 µM (BRK): ≤ 40% |
| Cc1cn(-c2cc(C(=O)Nc3ccc(C)c(N4Cc5cnc(NC6CC6)nc5C5(CC5)C4=O)c3)cc(C(F)(F)F)c2)cn1 [Compound 8, N-(3-(2'-(cyclopropylamino)-7'-oxo-5'H-spiro[cyclopropane-1,8'-pyrido[4,3-d]pyrimidine]-6'(7'H)-yl)-4-methylphenyl)-3-(4-methyl-1H-imidazol-1-yl)-5-(trifluoromethyl)benzamide] | > 40 | > 40 | ≤ 40 | > 40 | > 40 | > 40 | ≤ 40 | ≤ 40 | > 40 | ≤ 40 | ≤ 40 | ≤ 40 | > 40 | > 40 | > 40 | > 40 | > 40 | ≤ 40 | > 40 | ≤ 40 | remaining activity at 1 µM (CAMK1D; CAMK1D): > 40%; remaining activity at 1 µM (CK2A; CK2A): > 40%; remaining activity at 1 µM (PKG1B; PKG1B): > 40%; remaining activity at 1 µM (P38A/MAPK14; P38A/MAPK14, 1 µM): ≤ 40%; remaining activity at 1 µM (CDK5/P25): > 40%; remaining activity at 1 µM (AXL): > 40%; remaining activity at 1 µM (NEK9): > 40%; remaining activity at 1 µM (MEK1): > 40%; remaining activity at 1 µM (MAPKAPK2): > 40%; remaining activity at 1 µM (EPHA3): ≤ 40%; remaining activity at 1 µM (KDR/VEGFR2): ≤ 40%; remaining activity at 1 µM (MARK1): > 40%; remaining activity at 1 µM (VRK1): > 40%; remaining activity at 1 µM (BRK): ≤ 40% |
